According to patent publication US20250011368A1, “DLL3 TARGETING PEPTIDES AND CONSTRUCTS THEREOF” (MARIANA ONCOLOGY INC., priority 2023, published 2025):
Bridge positions count the residues as written; N and C are the ends. Square brackets hold non-standard residues; d marks the D form. Peptide text beside a SMILES is read from it. * marks the point of attachment. DOTA = O=C(O)CN1CCN(CC(=O)O)CCN(CC(=O)*)CCN(CC(=O)O)CC1; Phe(4-CF3) = N[C@@H](Cc1ccc(C(F)(F)F)cc1)C(=O)O; Trp(5-F) = N[C@@H](Cc1c[nH]c2ccc(F)cc12)C(=O)O; Phe(2-CF3) = N[C@@H](Cc1ccccc1C(F)(F)F)C(=O)O; Trp(7-aza) = N[C@@H](Cc1c[nH]c2ncccc12)C(=O)O; Pro(trans-4-F) = O=C(O)[C@@H]1C[C@@H](F)CN1; Phe(4-F) = N[C@@H](Cc1ccc(F)cc1)C(=O)O; Gly(4-THP) = N[C@H](C(=O)O)C1CCOCC1; Nva(3-Et) = CCC(CC)[C@H](N)C(=O)O; Cha = N[C@@H](CC1CCCCC1)C(=O)O; Cba = N[C@@H](CC1CCC1)C(=O)O; Chg = N[C@H](C(=O)O)C1CCCCC1; Tle = CC(C)(C)[C@H](N)C(=O)O; Nle = CCCC[C@H](N)C(=O)O; Aze = O=C(O)[C@@H]1CCN1

Molecular target: T1, human DLL3 (Homo sapiens, UniProt Q9NYJ7)
T1 sequence (Q9NYJ7 27-618): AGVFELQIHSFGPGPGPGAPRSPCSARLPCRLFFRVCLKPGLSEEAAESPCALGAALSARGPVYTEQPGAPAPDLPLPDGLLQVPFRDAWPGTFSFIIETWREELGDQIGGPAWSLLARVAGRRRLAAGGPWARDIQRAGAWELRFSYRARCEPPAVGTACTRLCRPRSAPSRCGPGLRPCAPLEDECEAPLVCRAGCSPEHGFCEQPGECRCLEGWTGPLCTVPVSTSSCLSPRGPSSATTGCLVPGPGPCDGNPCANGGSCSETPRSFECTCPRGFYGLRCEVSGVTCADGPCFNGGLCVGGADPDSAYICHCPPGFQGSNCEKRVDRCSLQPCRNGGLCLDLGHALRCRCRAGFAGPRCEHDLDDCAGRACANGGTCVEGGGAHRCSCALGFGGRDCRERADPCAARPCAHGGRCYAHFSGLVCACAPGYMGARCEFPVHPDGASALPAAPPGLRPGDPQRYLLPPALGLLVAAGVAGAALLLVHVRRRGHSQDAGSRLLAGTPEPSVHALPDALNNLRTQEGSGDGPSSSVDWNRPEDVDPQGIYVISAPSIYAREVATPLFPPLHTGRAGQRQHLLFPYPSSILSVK
Test: Affinity determination by Surface Plasmon Resonance (SPR)
Type: binding
Conditions: 25° C., biotinylated human DLL3 immobilized on streptavidin sensor chip, 1:1 binding model; read-out: SPR KD
Summary of the method: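 Biotinylated human DLL3 was captured on a streptavidin chip with a reference surface. Compounds at several concentrations were injected at 100 μL/minute in phosphate buffer (137 mM NaCl, 2.7 mM KCl, 0.05% P20, 2% DMSO). Affinity and kinetics came from 1:1 model fits of the sensorgrams.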

Row | Kd [µM] | SMILES
1 | 0.001 to 0.01 | CC(=O)N[C@@H](Cc1c[nH]c2ccc(F)cc12)C(=O)N[C@H](C(=O)N[C@@H](CC1CCCCC1)C(=O)N[C@H]1CSSC[C@@H](C(=O)N[C@@H](Cc2c[nH]c3ncccc23)C(=O)N2C[C@H](F)C[C@H]2C(=O)N[C@H](CCCCNC(=O)CN2CCN(CC(=O)O)CCN(CC(=O)O)CCN(CC(=O)O)CC2)C(N)=O)NC(=O)[C@H](CC(=O)O)NC(=O)[C@H](Cc2cnc[nH]2)NC(=O)[C@H](Cc2ccc(F)cc2)NC(=O)[C@H](CC(N)=O)NC(=O)[C@H](CC(N)=O)NC1=O)[C@@H](C)O [compound 133, Ac-(5Fluoro-W)-T-(CHA)-C(3)-N-N-(4Fluoro-F)-H-D-C(3)-(7Aza-W)-(trans4Fluoro-P)-[D-Lys(DOTA)]-NH2] (Ac-[Trp(5-F)]T[Cha]CNN[Phe(4-F)]HDC[Trp(7-aza)][Pro(trans-4-F)][dK](DOTA)-NH2; disulfide 4-10)
2 | 0.001 to 0.01 | CC(=O)N[C@@H](Cc1c[nH]c2ccc(F)cc12)C(=O)N[C@H](C(=O)N[C@@H](CC1CCC1)C(=O)N[C@H]1CSSC[C@@H](C(=O)N[C@@H](Cc2c[nH]c3ncccc23)C(=O)N2C[C@H](F)C[C@H]2C(=O)N[C@H](CCCCNC(=O)CN2CCN(CC(=O)O)CCN(CC(=O)O)CCN(CC(=O)O)CC2)C(N)=O)NC(=O)[C@H](CC(=O)O)NC(=O)[C@H](Cc2cnc[nH]2)NC(=O)[C@H](Cc2ccc(F)cc2)NC(=O)[C@H](CC(N)=O)NC(=O)[C@H](CC(N)=O)NC1=O)[C@@H](C)O [compound 134, Ac-(5Fluoro-W)-T-(CBA)-C(3)-N-N-(4Fluoro-F)-H-D-C(3)-(7Aza-W)-(trans4Fluoro-P)-[D-Lys(DOTA)]-NH2] (Ac-[Trp(5-F)]T[Cba]CNN[Phe(4-F)]HDC[Trp(7-aza)][Pro(trans-4-F)][dK](DOTA)-NH2; disulfide 4-10)
3 | 0.001 to 0.01 | CC(=O)N[C@@H](Cc1c[nH]c2ccc(F)cc12)C(=O)N[C@H](C(=O)N[C@H](C(=O)N[C@H]1CSSC[C@@H](C(=O)N[C@@H](Cc2c[nH]c3ncccc23)C(=O)N2C[C@H](F)C[C@H]2C(=O)N[C@H](CCCCNC(=O)CN2CCN(CC(=O)O)CCN(CC(=O)O)CCN(CC(=O)O)CC2)C(N)=O)NC(=O)[C@H](CC(=O)O)NC(=O)[C@H](Cc2cnc[nH]2)NC(=O)[C@H](Cc2ccc(F)cc2)NC(=O)[C@H](CC(N)=O)NC(=O)[C@H](CC(N)=O)NC1=O)C1CCCCC1)[C@@H](C)O [compound 135, Ac-(5Fluoro-W)-T-(Chg)-C(3)-N-N-(4Fluoro-F)-H-D-C(3)-(7Aza-W)-(trans4Fluoro-P)-[D-Lys(DOTA)]-NH2] (Ac-[Trp(5-F)]T[Chg]CNN[Phe(4-F)]HDC[Trp(7-aza)][Pro(trans-4-F)][dK](DOTA)-NH2; disulfide 4-10)
4 | 0.001 to 0.01 | CC(=O)N[C@@H](Cc1c[nH]c2ccc(F)cc12)C(=O)N[C@H](C(=O)N[C@@H](Cc1ccccc1C(F)(F)F)C(=O)N[C@H]1CSSC[C@@H](C(=O)N[C@@H](Cc2c[nH]c3ncccc23)C(=O)N2C[C@H](F)C[C@H]2C(=O)N[C@H](CCCCNC(=O)CN2CCN(CC(=O)O)CCN(CC(=O)O)CCN(CC(=O)O)CC2)C(N)=O)NC(=O)[C@H](CC(=O)O)NC(=O)[C@H](Cc2cnc[nH]2)NC(=O)[C@H](Cc2ccc(F)cc2)NC(=O)[C@H](CC(N)=O)NC(=O)[C@H](CC(N)=O)NC1=O)[C@@H](C)O [compound 136, Ac-(5Fluoro-W)-T-(2CF3-F)-C(3)-N-N-(4Fluoro-F)-H-D-C(3)-(7Aza-W)-(trans4Fluoro-P)-[D-Lys(DOTA)]-NH2] (Ac-[Trp(5-F)]T[Phe(2-CF3)]CNN[Phe(4-F)]HDC[Trp(7-aza)][Pro(trans-4-F)][dK](DOTA)-NH2; disulfide 4-10)
5 | 0.001 to 0.01 | CC(=O)N[C@@H](Cc1c[nH]c2ccc(F)cc12)C(=O)N[C@H](C(=O)N[C@H](C(=O)N[C@H]1CSSC[C@@H](C(=O)N[C@@H](Cc2c[nH]c3ncccc23)C(=O)N2CC[C@H]2C(=O)N[C@H](CCCCNC(=O)CN2CCN(CC(=O)O)CCN(CC(=O)O)CCN(CC(=O)O)CC2)C(N)=O)NC(=O)[C@H](CC(=O)O)NC(=O)[C@H](Cc2cnc[nH]2)NC(=O)[C@H](Cc2ccc(C(F)(F)F)cc2)NC(=O)[C@H](CC(N)=O)NC(=O)[C@H](CC(N)=O)NC1=O)C(C)(C)C)[C@@H](C)O [compound 137, Ac-(5Fluoro-W)-T-(Tbg)-C(3)-N-N-(4CF3-F)-H-D-C(3)-(7Aza-W)-(Aze)-[D-Lys(DOTA)]-NH2] (Ac-[Trp(5-F)]T[Tle]CNN[Phe(4-CF3)]HDC[Trp(7-aza)][Aze][dK](DOTA)-NH2; disulfide 4-10)
6 | 0.01 to 0.1 | CCC(CC)[C@H](NC(=O)[C@@H](NC(=O)[C@H](Cc1c[nH]c2ccc(F)cc12)NC(C)=O)[C@@H](C)O)C(=O)N[C@H]1CSSC[C@@H](C(=O)N[C@@H](Cc2c[nH]c3ncccc23)C(=O)N2CC[C@H]2C(=O)N[C@H](CCCCNC(=O)CN2CCN(CC(=O)O)CCN(CC(=O)O)CCN(CC(=O)O)CC2)C(N)=O)NC(=O)[C@H](CC(=O)O)NC(=O)[C@H](Cc2c[nH]cn2)NC(=O)[C@H](Cc2ccc(C(F)(F)F)cc2)NC(=O)[C@H](CC(N)=O)NC(=O)[C@H](CC(N)=O)NC1=O [compound 138, Ac-(5Fluoro-W)-T-(Env)-C(3)-N-N-(4CF3-F)-H-D-C(3)-(7Aza-W)-(Aze)-[D-Lys(DOTA)]-NH2] (Ac-[Trp(5-F)]T[Nva(3-Et)]CNN[Phe(4-CF3)]HDC[Trp(7-aza)][Aze][dK](DOTA)-NH2; disulfide 4-10)
7 | 0.001 to 0.01 | CC(=O)N[C@@H](Cc1c[nH]c2ccc(F)cc12)C(=O)N[C@H](C(=O)N[C@H](C(=O)N[C@H]1CSSC[C@@H](C(=O)N[C@@H](Cc2c[nH]c3ncccc23)C(=O)N2CC[C@H]2C(=O)N[C@H](CCCCNC(=O)CN2CCN(CC(=O)O)CCN(CC(=O)O)CCN(CC(=O)O)CC2)C(N)=O)NC(=O)[C@H](CC(=O)O)NC(=O)[C@H](Cc2cnc[nH]2)NC(=O)[C@H](Cc2ccc(C(F)(F)F)cc2)NC(=O)[C@H](CC(N)=O)NC(=O)[C@H](CC(N)=O)NC1=O)C1CCOCC1)[C@@H](C)O [compound 139, Ac-(5Fluoro-W)-T-(THPG)-C(3)-N-N-(4CF3-F)-H-D-C(3)-(7Aza-W)-(Aze)-[D-Lys(DOTA)]-NH2] (Ac-[Trp(5-F)]T[Gly(4-THP)]CNN[Phe(4-CF3)]HDC[Trp(7-aza)][Aze][dK](DOTA)-NH2; disulfide 4-10)
8 | 0.01 to 0.1 | CCCC[C@H](NC(=O)[C@@H](NC(=O)[C@H](Cc1c[nH]c2ccc(F)cc12)NC(C)=O)[C@@H](C)O)C(=O)N[C@H]1CSSC[C@@H](C(=O)N[C@@H](Cc2c[nH]c3ncccc23)C(=O)N2CC[C@H]2C(=O)N[C@H](CCCCNC(=O)CN2CCN(CC(=O)O)CCN(CC(=O)O)CCN(CC(=O)O)CC2)C(N)=O)NC(=O)[C@H](CC(=O)O)NC(=O)[C@H](Cc2cnc[nH]2)NC(=O)[C@H](Cc2ccc(C(F)(F)F)cc2)NC(=O)[C@H](CC(N)=O)NC(=O)[C@H](CC(N)=O)NC1=O [compound 140, Ac-(5Fluoro-W)-T-(Nle)-C(3)-N-N-(4CF3-F)-H-D-C(3)-(7Aza-W)-(Aze)-[D-Lys(DOTA)]-NH2] (Ac-[Trp(5-F)]T[Nle]CNN[Phe(4-CF3)]HDC[Trp(7-aza)][Aze][dK](DOTA)-NH2; disulfide 4-10)
